From the PolyMetriX glass transition set come the findings set out here.

Molecules are shown by their SMILES.

In turn, `*/C(=C(/*)c1ccc([Si](C(C)C)(C(C)C)C(C)C)cc1)c1ccccc1` (repeat unit) displayed a glass transition temperature of 250.00 °C.

The molecule `*/C=C(\F)C(F)(F)C*` (repeat unit) had a glass transition temperature of -35.00 °C.

`*C(=O)c1ccc2c(c1)C(=O)N(c1ccc(Cc3ccc(C(=O)c4cccc(N5C(=O)c6ccc(*)cc6C5=O)c4)cc3)cc1)C2=O` (repeat unit) showed a glass transition temperature of 290.00 °C.

Molecule `*CCCCCCCCCCCc1nc2ccc(-c3ccc4nc(*)oc4c3)cc2o1` (repeat unit) came in with a glass transition temperature of 62.00 °C.

Consider `*c1ccc(-c2ccc(-c3cc(-c4ccc(Oc5ccc(-c6ccccc6)cc5)cc4)c4cc(-c5ccc6nc(*)cc(-c7ccc(Oc8ccc(-c9ccccc9)cc8)cc7)c6c5)ccc4n3)cc2)cc1` (repeat unit), for which the glass transition temperature came out at 364.00 °C.

For `*c1ccc(-c2ccc(-c3cc(-c4ccc(Oc5ccc(Oc6ccccc6)cc5)cc4)c4cc(-c5ccc6nc(*)cc(-c7ccc(Oc8ccc(Oc9ccccc9)cc8)cc7)c6c5)ccc4n3)cc2)cc1` (repeat unit), the glass transition temperature came out at 355.00 °C.

`*c1ccc(-c2ccc(-c3cc(-c4ccccc4)c4cc(C5(c6ccc7nc(*)cc(-c8ccccc8)c7c6)c6ccccc6C(=O)c6ccccc65)ccc4n3)cc2)cc1` (repeat unit) had a glass transition temperature of 350.00 °C.

In turn, `*c1ccc(-c2cnc3cc(S(=O)(=O)c4ccc5nc(*)cnc5c4)ccc3n2)cc1` (repeat unit) returned a glass transition temperature of 342.00 °C.

For `*c1ccc(-c2nc3cc(-c4ccc5nc(*)c(-c6ccc7ccccc7c6)nc5c4)ccc3nc2-c2ccc3ccccc3c2)cc1` (repeat unit), the glass transition temperature was determined as 333.00 °C.

Regarding `*c1ccc(-c2nc3cc(-c4ccc5nc(*)c(-c6ccccc6)nc5c4)ccc3nc2-c2ccccc2)cc1` (repeat unit), the glass transition temperature was determined as 391.50 °C.

Regarding `*c1ccc(-c2nc3cc(S(=O)(=O)c4ccc5nc(-c6ccccc6)c(*)nc5c4)ccc3nc2-c2ccccc2)cc1` (repeat unit), the glass transition temperature was found to be 345.00 °C.

Consider `*c1ccc(-c2nc3ccc(S(=O)(=O)c4ccc5nc(*)c(-c6ccccc6)nc5c4)cc3nc2-c2ccccc2)cc1` (repeat unit), for which the glass transition temperature is 345.00 °C.

`*c1ccc(C(=O)c2cccc(C(=O)c3ccc(S(*)(=O)=O)cc3)c2)cc1` (repeat unit) registered a glass transition temperature of 198.00 °C.

`*c1ccc(OCCCCCCCCCCCOc2ccc(-c3ccc4nc(-c5cccc(-c6cc(-c7ccccc7)c7cc(*)ccc7n6)c5)cc(-c5ccccc5)c4c3)cc2)cc1` (repeat unit) yielded a glass transition temperature of 133.50 °C.

On to `*c1ccc(Oc2ccc(-c3c(-c4ccccc4)nc4ccc(-c5ccc6nc(-c7ccccc7)c(*)c(-c7ccccc7)c6c5)cc4c3-c3ccccc3)cc2)cc1` (repeat unit), for which the glass transition temperature came to 307.50 °C.

In turn, `*c1ccc(Oc2ccc(-c3nc(-c4cccc(-c5nnc(-c6ccccc6)c(*)n5)n4)nnc3-c3ccccc3)cc2)cc1` (repeat unit) yielded a glass transition temperature of 219.00 °C.

Consider `*c1ccc(Oc2ccc(-n3nccc3-c3cccc(-c4ccnn4*)c3)cc2)cc1` (repeat unit), for which the glass transition temperature is 216.00 °C.

`*c1ccc(Oc2cccc(N3C(=O)c4ccc(-c5cccc6c5C(=O)N(*)C6=O)cc4C3=O)c2)cc1` (repeat unit) showed a glass transition temperature of 286.00 °C.

`*c1ccc(Sc2ccc(-c3nc4cc(-c5ccc6nc(-c7ccccc7)c(*)nc6c5)ccc4nc3-c3ccccc3)cc2)cc1` (repeat unit) had a glass transition temperature of 288.00 °C.

Molecule `*c1ccc(Sc2ccc(-c3nc4ccc(-c5ccc6nc(*)c(-c7ccccc7)nc6c5)cc4nc3-c3ccccc3)cc2)cc1` (repeat unit) came in with a glass transition temperature of 288.00 °C.

Molecule `*c1ccc2c(c1)C(=O)N(c1ccc(Oc3ccc(C(=O)c4cccc(N5C(=O)c6ccc(C(*)(C(F)(F)F)C(F)(F)F)cc6C5=O)c4)cc3)c(C(F)(F)F)c1)C2=O` (repeat unit) returned a glass transition temperature of 222.00 °C.

With `*c1ccc2c(c1)C(=O)N(c1ccc(Oc3ccc(C(=O)c4cccc(N5C(=O)c6ccc(C(*)(C(F)(F)F)C(F)(F)F)cc6C5=O)c4)cc3)cc1)C2=O` (repeat unit), the glass transition temperature amounted to 242.00 °C.

For `*c1ccc2c(c1)C(=O)N(c1ccc(Sc3ccc(N4C(=O)c5ccc(C(*)(C(F)(F)F)C(F)(F)F)cc5C4=O)cc3)cc1)C2=O` (repeat unit), the glass transition temperature was 301.00 °C.

The molecule `*c1ccc2c(c1)C(=O)N(c1ccc(Sc3ccc(Sc4ccc(Sc5ccc(N6C(=O)c7ccc(C(*)(C(F)(F)F)C(F)(F)F)cc7C6=O)cc5)cc4)cc3)cc1)C2=O` (repeat unit) had a glass transition temperature of 233.00 °C.

Consider `*c1ccc2c(c1)C(=O)N(c1cccc(C(F)(F)C(F)(F)C(F)(F)C(F)(F)C(F)(F)c3cccc(N4C(=O)c5ccc(C(F)(F)C(F)(F)C(F)(F)C(F)(F)C(F)(F)C(F)(F)C(*)(F)F)cc5C4=O)c3)c1)C2=O` (repeat unit), for which the glass transition temperature is 108.50 °C.

Take `*c1ccc2c(c1)C(=O)N(c1cccc(C(F)(F)C(F)(F)C(F)(F)c3cccc(N4C(=O)c5ccc(C(F)(F)C(F)(F)C(F)(F)C(*)(F)F)cc5C4=O)c3)c1)C2=O` (repeat unit): the glass transition temperature amounted to 159.00 °C.

Take `*c1ccc2c(c1)C(=O)N(c1cccc(C(O)c3cccc(N4C(=O)c5ccc(C(*)(C(F)(F)F)C(F)(F)F)cc5C4=O)c3)c1)C2=O` (repeat unit): the glass transition temperature was determined as 262.00 °C.

`*c1ccc2c(c1)C(=O)N(c1cccc(Oc3ccc(Oc4cccc(N5C(=O)c6ccc(C(*)(C(F)(F)F)C(F)(F)F)cc6C5=O)c4)cc3)c1)C2=O` (repeat unit) yielded a glass transition temperature of 230.00 °C.

As to `*c1ccc2c(c1)C(CCCCCC)(CCCCCC)c1cc(-c3cc(CCCCCCCC)c(*)cc3CCCCCCCC)ccc1-2` (repeat unit), the glass transition temperature is 74.50 °C.

With `*c1ccc2c(c1)C(CCCCCC)(CCCCCC)c1cc(-c3cc(OCCCCCCCC)c(*)cc3OCCCCCCCC)ccc1-2` (repeat unit), the glass transition temperature worked out at 58.00 °C.

For `*c1ccc2c(c1)C(CCCCCC)(CCCCCC)c1cc(-c3ccc4c(c3)c3cc(*)ccc3n4-c3ccc(C)cc3)ccc1-2` (repeat unit), the glass transition temperature came to 155.00 °C.

The molecule `*c1ccc2c(c1)C(CCCCCC)(CCCCCC)c1cc(-c3ccc4c(c3)c3cc(*)ccc3n4-c3ccc(OC)cc3)ccc1-2` (repeat unit) registered a glass transition temperature of 174.00 °C.

`*c1ccc2c(c1)C(CCCCCCCC)(CCCCCCCC)c1cc(-c3c(F)c(F)c(*)c(F)c3F)ccc1-2` (repeat unit) registered a glass transition temperature of 29.00 °C.

`*c1ccc2c(c1)C(CCCCCCCC)(CCCCCCCC)c1cc(-c3cc(F)c(*)cc3F)ccc1-2` (repeat unit): the glass transition temperature amounted to 34.00 °C.

On to `*c1ccc2c(c1)Sc1cc(-c3ccc(-c4ccc(*)s4)s3)ccc1N2CCCCCCCCCCCC` (repeat unit), for which the glass transition temperature is 150.00 °C.

`*c1ccc2oc(-c3ccc(-c4nc5cc(C(*)(c6ccccc6)C(F)(F)F)ccc5o4)cc3)nc2c1` (repeat unit) displayed a glass transition temperature of 369.00 °C.

In the case of `*c1ccc2oc(-c3ccc(Oc4ccc(-c5nc6cc(C(*)(C(F)(F)F)C(F)(F)F)ccc6o5)cc4)cc3)nc2c1` (repeat unit), the glass transition temperature turned out to be 303.00 °C.

On to `*c1ccc2oc(-c3ccc4oc5ccc(-c6nc7cc(C(*)(C(F)(F)F)C(F)(F)F)ccc7o6)cc5c4c3)nc2c1` (repeat unit), for which the glass transition temperature worked out at 195.00 °C.

`*c1ccc2oc(C3CCC(c4nc5cc(C(*)(C(F)(F)F)C(F)(F)F)ccc5o4)CC3)nc2c1` (repeat unit) returned a glass transition temperature of 271.00 °C.

Take `*c1cccc(-c2nc3cc(-c4ccc5nc(*)c(-c6ccccc6)nc5c4)ccc3nc2-c2ccccc2)c1` (repeat unit): the glass transition temperature is 319.00 °C.

Molecule `*c1cccc(-c2nc3cc(-c4ccc5nc(-c6ccccc6)c(*)nc5c4)ccc3nc2-c2ccccc2)c1` (repeat unit) gave a glass transition temperature of 320.00 °C.

The molecule `*c1cccc(-c2nc3cc4nc(*)c(-c5ccccc5)nc4cc3nc2-c2ccccc2)c1` (repeat unit) returned a glass transition temperature of 365.00 °C.

Molecule `*c1cccc(-n2c(=O)c3cc4c(=O)n(*)c(=O)c4cc3c2=O)n1` (repeat unit) yielded a glass transition temperature of 183.50 °C.

Molecule `*c1cccc(C(=O)c2ccc(Oc3ccc(N4C(=O)c5ccc(Oc6ccc7c(c6)C(=O)N(*)C7=O)cc5C4=O)cc3)cc2)c1` (repeat unit) displayed a glass transition temperature of 232.00 °C.

For the molecule `*c1cccc(CCCOc2cccc(N3C(=O)c4cccc(-c5ccc6c(c5)C(=O)N(*)C6=O)c4C3=O)c2)c1` (repeat unit), the glass transition temperature came to 178.00 °C.

Consider `*c1cccc(Cc2cccc(N3C(=O)c4ccc([Si](C)(C)c5ccc6c(c5)C(=O)N(*)C6=O)cc4C3=O)c2)c1` (repeat unit), for which the glass transition temperature amounted to 238.00 °C.

Molecule `*c1cccc(N2C(=O)c3ccc(C(c4ccc5c(c4)C(=O)N(c4cccc(-n6c(=O)c7cc8c(=O)n(*)c(=O)c8cc7c6=O)c4)C5=O)(C(F)(F)F)C(F)(F)F)cc3C2=O)c1` (repeat unit) registered a glass transition temperature of 338.00 °C.

Turning to `*c1cccc(OCCCCCCCCCCCCOc2cccc(N3C(=O)c4ccc(-c5ccc6c(c5)C(=O)N(*)C6=O)cc4C3=O)c2)c1` (repeat unit), the glass transition temperature was 116.00 °C.

`*c1cccc(OCCCCCCCCCCCCOc2cccc(N3C(=O)c4ccc(-c5cccc6c5C(=O)N(*)C6=O)cc4C3=O)c2)c1` (repeat unit) displayed a glass transition temperature of 116.00 °C.

`*c1cccc(OCCCCCCCCCOc2cccc(N3C(=O)c4ccc(-c5ccc6c(c5)C(=O)N(*)C6=O)cc4C3=O)c2)c1` (repeat unit) yielded a glass transition temperature of 132.00 °C.

Turning to `*c1cccc(OCCCCCCCCCOc2cccc(N3C(=O)c4ccc(-c5cccc6c5C(=O)N(*)C6=O)cc4C3=O)c2)c1` (repeat unit), the glass transition temperature is 134.00 °C.

`*c1cccc(OCCCCCOc2cccc(N3C(=O)c4ccc(-c5ccc6c(c5)C(=O)N(*)C6=O)cc4C3=O)c2)c1` (repeat unit): the glass transition temperature came out at 165.00 °C.

For the molecule `*c1cccc(OCCCCOc2cccc(N3C(=O)c4ccc(-c5cccc6c5C(=O)N(*)C6=O)cc4C3=O)c2)c1` (repeat unit), the glass transition temperature was 178.00 °C.
